Assay results: ChEMBL document CHEMBL3102693 (ACS Med Chem Lett, 2013)
In brackets after ≈: the same amount, converted by molar mass.

Experiments:
[1] = test system: Mycobacterium tuberculosis; test: Antimicrobial activity against Mycobacterium tuberculosis H37Rv after 10 to 14 days by broth microdilution assay; type: functional
[2] = target: T1, BirA bifunctional protein (Mycobacterium tuberculosis (strain CDC 1551 / Oshkosh), UniProt P96884); test: Inhibition of biotin binding to Mycobacterium tuberculosis BirA by isothermal titration calorimetry
T1 sequence (P96884 whole entry): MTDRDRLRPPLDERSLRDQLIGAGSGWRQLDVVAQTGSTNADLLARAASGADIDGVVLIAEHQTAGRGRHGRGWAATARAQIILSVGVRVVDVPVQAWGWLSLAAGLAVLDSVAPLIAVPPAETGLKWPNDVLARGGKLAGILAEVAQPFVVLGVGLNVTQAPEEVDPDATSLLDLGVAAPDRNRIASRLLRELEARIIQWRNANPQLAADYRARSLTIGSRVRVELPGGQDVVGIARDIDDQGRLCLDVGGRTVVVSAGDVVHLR

| SMILES | MIC90 [1] [µM] | Kd [2] [nM] |
| --- | --- | --- |
| Nc1nccc2c1ncn2[C@@H]1O[C@H](COS(=O)(=O)NC(=O)CCCC[C@@H]2SC[C@@H]3NC(=O)N[C@@H]32)[C@@H](O)[C@H]1O | 1.56 (≈ 0.892 µg/mL) | 0.04 |
| Nc1nc2ccccc2c2c1ncn2[C@@H]1O[C@H](COS(=O)(=O)NC(=O)CCCC[C@@H]2SC[C@@H]3NC(=O)N[C@@H]32)[C@@H](O)[C@H]1O | > 100 | 0.23 |
| Nc1ncnc2c1ncn2[C@@H]1O[C@H](CNS(=O)(=O)NC(=O)CCCC[C@@H]2SC[C@@H]3NC(=O)N[C@@H]32)[C@@H](O)[C@H]1O | 0.78 (≈ 0.446 µg/mL) |  |
| CC(C)(C)C#Cc1nc(N)c2ncn([C@@H]3O[C@H](COS(=O)(=O)NC(=O)CCCC[C@@H]4SC[C@@H]5NC(=O)N[C@@H]54)[C@@H](O)[C@H]3O)c2n1 | > 100 | 11 |
| Nc1ncnc2c1ncn2[C@@H]1O[C@H](CCS(=O)(=O)NC(=O)CCCC[C@@H]2SC[C@@H]3NC(=O)N[C@@H]32)[C@@H](O)[C@H]1O | 3.12 (≈ 1.78 µg/mL) | 0.1 |
